{"source": "patent US10239871B2", "about": "“Compounds and methods for regulating integrins” (ADHAERE PHARMACEUTICALS, INC., priority 2012, dated 2019)", "key": {"[1]": {"tested_on": "C57BL/6J mice", "assay": "Survival after sublethal total body irradiation", "format": "in vivo", "details": "20 μg/animal for seven days", "procedure": "Control groups (16 mice per group) of 6-8 weeks old C57BL/6J mice received a single sublethal dose (6 Gy) of total body radiation (TBI) and were monitored for survival with radiation alone. The experimental groups (16 mice per group) of 6-8 weeks old C57BL/6J received a single sublethal dose (6 Gy) of total body radiation (TBI) and were administered leukadherin LA1 (20 μg/animal) for seven consecutive days. Additionally, two additional control groups of animals were monitored—animals with no treatment at all or animals that were administered LA1 for seven consecutive days in the absence of any irradiation."}, "[2]": {"assay": "Solubility of LA1 in oral vehicle formulations and simulated biological fluids (LC-MS)", "format": "physicochemical", "procedure": "Pilot oral vehicle evaluation. […] Subsequently, re-dispersability of LA1 was tested using two simulated biological fluids—simulated gastric fluid (SGF) and Fasted State Simulated […] Fluid (FaSSIF)."}, "[3]": {"tested_on": "T-cell proliferation", "assay": "Mixed lymphocyte reaction (MLR)", "format": "cell-based"}, "[4]": {"tested_on": "balloon-induced arterial injury", "assay": "Balloon-induced arterial injury in rats (neointima)", "format": "in vivo, rat", "procedure": "All surgeries were performed under anesthesia by isoflurane (Baxter). Activating mAb ED7 (4 mg/kg/d), the isotype control mIgG1 (4 mg/kg/d, Rockland) and the leukadherin LA1 (1 mg/kg/d) were each administered intra peritoneally (i.p.) in saline daily until the end of the experiment. Balloon injury in the right iliac artery was inflicted with a 2F Fogarty catheter (Baxter) adapted to a custom angiographic kit (Boston Scientific, Scimed). An aortotomy in the abdominal aorta was made to insert a catheter to the level of the right iliac artery. The balloon was inflated to 1.5 to 1.6 atmospheres and retracted to the arteriotomy site three times. The aortic excision was repaired with eight sutures. The abdominal cavity was closed by planes with an interrupted suture pattern. Arterial specimens were collected 21 days after injury and fixed in 4% formalin-PBS (Sigma-Aldrich) for 5 minutes and analyzed by histology and immunostaining. Neointima were measured in H&E stained slides using ImagePro.\nDespite significant technological advances in PCI, restenosis (re-narrowing) secondary to neointimal hyperplasia remains a major complication limiting the success of coronary interventions in 5-25% of patients. The recruitment of inflammatory macrophages and other leukocytes precedes neointimal hyperplasia. The denudation of endothelial cell lining at the site of mechanical vascular injury during a PCI procedure leads to the deposition of fibrin and platelets, where selective binding between the platelet cell surface receptor GP lb[…] and leukocytic CD11b/CD18 leads to the migration and recruitment of these inflammatory cells. Indeed, in experimental models, it has been shown that the genetic ablation of CD11b (CD11b−/− animals) or its blockade (using biological antagonists) can reduce neointima formation after angioplasty or stent implantation. […] Here, this experimental arterial balloon injury model was used to examine the relative efficacy of the two types of agonists, in a head-to-head comparison, on inflammatory responses in vivo. First, the dose-dependence of LA1 in this model system was determined. LA1 was administered at two different doses (0.05 or 1 mg/kg/d, intraperitoneal (i.p.)), or the vehicle (DMSO), in a saline solution to SD male rats 30 minutes prior to injury and continued daily injections for the next three weeks and subsequently measured the extent of vascular injury via tissue histology (FIGS. 14A-14D). Data shown are mean±SEM. *p<0.05, **p<0.001.\nNext, in order to examine the relative efficacy of LA1 and ED7, LA1 (1 mg/kg/d) or ED7 (4 mg/kg/d) were administered to SD male rats 30 minutes prior to balloon injury and continued daily for the next 21 days. An isotype control antibody (mIgG1, 4 mg/kg/d) was administered to the control group of animals. […] Data shown are mean±SEM. *p<0.05, ***p<0.0001, ns=not significant."}, "[5]": {"tested_on": "Human macrophages", "assay": "TNF-α release from human macrophages", "format": "cell-based"}, "[6]": {"details": "LA1 1 mg/kg/d, ED7 4 mg/kg/d, 21 days"}}, "note": "Entries after “also recorded” stand apart in the source; their conditions may differ.", "data": [{"smiles": "O=C(O)c1ccc(-c2ccc(/C=C3\\SC(=S)N(Cc4ccccc4)C3=O)o2)cc1", "note": "[LA1]", "values": [{"measurement": "animal mortality", "setting": "[1]; with or without 6 Gy TBI", "value": "did not result in any increase in animal mortality"}, {"measurement": "effect on survival after sublethal TBI", "setting": "[1]; 6 Gy TBI", "value": "protective effect"}, {"measurement": "solubility in vehicle formulation", "setting": "[2]; 10% Tween80, 20% ETPGS and 30% Captisol, 10 mg/mL slurry, Mg-salt", "value": "3 to 4", "unit": "mg/mL"}, {"measurement": "solubility on re-dispersion in simulated biological fluids", "setting": "[2]; SGF and FaSSIF, 10% Tween80 formulation", "value": "~0.15", "unit": "mg/mL"}, {"measurement": "T-cell proliferation", "setting": "[3]", "value": "dose-dependently reduces T-cell proliferation"}, {"measurement": "neointimal hyperplasia vs vehicle", "setting": "[4]; 0.05 or 1 mg/kg/d i.p., three weeks, SD male rats", "value": "significantly less neointimal hyperplasia"}, {"measurement": "dose dependence of reduction in mechanical vascular injury", "setting": "[4]; 0.05 vs 1 mg/kg/d i.p.", "value": "dose-dependent reduction"}, {"measurement": "neointima formation compared to the ED7 group", "setting": "[4]; LA1 1 mg/kg/d vs ED7 4 mg/kg/d, 21 days", "value": "significantly less neointima formation"}, {"measurement": "neointimal hyperplasia (NIH) / mechanical vascular injury, significance vs control group", "setting": "[4]; [6]", "value": "significant reduction in neointimal hyperplasia"}, {"measurement": "neointimal thickening vs control mAb IgG1-treated group", "setting": "[4]; [6]", "value": "reduced neointimal thickening"}, {"measurement": "cellular morphology", "setting": "[5]; LA1 alone", "value": "no effect on cellular morphology"}, {"measurement": "TNF-α release from stimulated macrophages", "setting": "[5]; dsRNA antigen (R848) plus LA1, lupus patients and healthy volunteers", "value": "significantly reduced the TNF-α release; also recorded: significantly impaired"}, {"measurement": "TNF-α induction by LA1 alone", "setting": "[5]; over 24 hrs", "value": "did not induce TNF-α"}]}]}
